According to US20050261169A1, “Peptide and peptide mimetic derivatives having integrin inhibitor properties III” (priority 2003, published 2005):

Test system: mouse MC3T3 E1 osteoblast cultures
Test: Cell adhesion test on RGD-peptide-coated titanium surfaces
Format: cell-based
Conditions: 50,000 cells/cm^2 seeded, one hour in serum-free medium at 37° C.; FIG. 2; compared with JAU311003, all concentrations measured
Description: Ti or TiAl6V4 moldings having a diameter of 10 mm and a height of 1-2 mm are cleaned.
The moldings are transferred into 48-well plates (Costar, “non-tissue culture treated” Art. No. 3574). For bonding of the bioactive, cell adhesion-promoting molecules B (where B can be a cyclopeptide, peptide mimetic or linear peptide) to the prepared moldings, stock solutions containing B molecules (“B solutions”) are prepared in a final concentration of 1 mM in an aqueous buffer. Concentration series with the “B solution” final concentrations of 1 nM, 10 nM, 100 nM, 1 μM, 10 μM and 100 μM in each case are subsequently prepared by dilution with buffer. The moldings are covered with 250 μl of the respective B solutions in each case and subsequently incubated at room temperature for 18-24 hours. For removal of unbound B molecules, the samples are washed three times with buffer and stored in buffer overnight. […]
The adhesion of mouse MC3T3 E1 osteoblast cultures to RGD-peptide-coated titanium surfaces in vitro was investigated. 50,000 cells/cm^2 were seeded, and the proportion of adhered cells was determined after incubation for one hour in serum-free medium at 37° C./95% atmospheric humidity. • Cell adhesion rate [%]=adhered cells/seeded cells×100 • Peptide: cell adhesion rate [%] • The results can be found in the figures.

Substance: cyclo(Arg-Gly-Asp-D-Phe-Lys(^εNH—[CO—(CH2)5—NH]3—(CO—C6H3(CH2PO3H2)2)) [CD 135]
- Cell adhesion rate: higher cell adhesion rate for all concentrations measured
